Columns and labels:
Assay in all cases: NCI-60 one-dose SRB screening
Format in all cases: cell-based
SW-620 = details: Homo sapiens, SW-620, Colon Cancer, 10 µM one dose, 48 h, read-out: growth percentage
OVCAR-4 = details: Homo sapiens, OVCAR-4, Ovarian Cancer, 10 µM one dose, 48 h, read-out: growth percentage
OVCAR-5 = details: Homo sapiens, OVCAR-5, Ovarian Cancer, 10 µM one dose, 48 h, read-out: growth percentage
EKVX = details: Homo sapiens, Non-Small Cell Lung Cancer, 10 µM one dose, 48 h, read-out: growth percentage
UACC-257 = details: Homo sapiens, UACC-257, Melanoma, 10 µM one dose, 48 h, read-out: growth percentage
MDA-MB-468 = details: Homo sapiens, MDA-MB-468, Breast Cancer, 10 µM one dose, 48 h, read-out: growth percentage
NCI-H322M = details: Homo sapiens, Non-Small Cell Lung Cancer, 10 µM one dose, 48 h, read-out: growth percentage
HOP-62 = details: Homo sapiens, HOP-62, Non-Small Cell Lung Cancer, 10 µM one dose, 48 h, read-out: growth percentage
T-47D = details: Homo sapiens, T47D, Breast Cancer, 10 µM one dose, 48 h, read-out: growth percentage
BT-549 = details: Homo sapiens, BT-549, Breast Cancer, 10 µM one dose, 48 h, read-out: growth percentage
SF-295 = details: Homo sapiens, SF-295, CNS Cancer, 10 µM one dose, 48 h, read-out: growth percentage
A498 = details: Homo sapiens, A498, Renal Cancer, 10 µM one dose, 48 h, read-out: growth percentage
HCC-2998 = details: Homo sapiens, HCC-2998, Colon Cancer, 10 µM one dose, 48 h, read-out: growth percentage
OVCAR-3 = details: Homo sapiens, OVCAR-3, Ovarian Cancer, 10 µM one dose, 48 h, read-out: growth percentage
UO-31 = details: Homo sapiens, UO-31, Renal Cancer, 10 µM one dose, 48 h, read-out: growth percentage
MALME-3M = details: Homo sapiens, Melanoma, 10 µM one dose, 48 h, read-out: growth percentage
UACC-62 = details: Homo sapiens, UACC-62, Melanoma, 10 µM one dose, 48 h, read-out: growth percentage
SK-MEL-2 = details: Homo sapiens, SK-MEL-2, Melanoma, 10 µM one dose, 48 h, read-out: growth percentage
SK-MEL-5 = details: Homo sapiens, SK-MEL-5, Melanoma, 10 µM one dose, 48 h, read-out: growth percentage
U251 = details: Homo sapiens, U-251, U251, CNS Cancer, 10 µM one dose, 48 h, read-out: growth percentage
HCT-15 = details: Homo sapiens, HCT-15, Colon Cancer, 10 µM one dose, 48 h, read-out: growth percentage
HT29 = details: Homo sapiens, HT-29, HT29, Colon Cancer, 10 µM one dose, 48 h, read-out: growth percentage

| Compound | activity at 10 µM (SW-620) [%] | activity at 10 µM (OVCAR-4) [%] | activity at 10 µM (OVCAR-5) [%] | activity at 10 µM (EKVX) [%] | activity at 10 µM (UACC-257) [%] | activity at 10 µM (MDA-MB-468) [%] | activity at 10 µM (NCI-H322M) [%] | activity at 10 µM (HOP-62) [%] | activity at 10 µM (T-47D) [%] | activity at 10 µM (BT-549) [%] | activity at 10 µM (SF-295) [%] | activity at 10 µM (A498) [%] | activity at 10 µM (HCC-2998) [%] | activity at 10 µM (OVCAR-3) [%] | activity at 10 µM (UO-31) [%] | activity at 10 µM (MALME-3M) [%] | activity at 10 µM (UACC-62) [%] | activity at 10 µM (SK-MEL-2) [%] | activity at 10 µM (SK-MEL-5) [%] | activity at 10 µM (U251) [%] | other results |
| --- | --- | --- | --- | --- | --- | --- | --- | --- | --- | --- | --- | --- | --- | --- | --- | --- | --- | --- | --- | --- | --- |
| [O-][n+]1onc(-c2ccccc2)c1COc1ccc(Nc2ncnc3c2cnn3-c2ccccc2)cc1 [6a, 4-phenyl-3-((4-((1-phenyl-1H-pyrazolo[3,4-d]pyrimidin-4-yl)amino)phenoxy)methyl)-1,2,5-oxadiazole 2-oxide] | 106 | 130 | 110 | 98.9 | 98.9 | 107 | 109 | 107 | 96 | 95.4 | 98.4 | 103 | 106 | 95.9 | 94.2 | 90 | 103 | 105 | 102 | 107 | activity at 10 µM (HCT-15): 54.2%; activity at 10 µM (HT29): 96% |
| Cc1nc(Nc2ccc(OCc3c(-c4ccccc4)no[n+]3[O-])cc2)c2cnn(-c3ccccc3)c2n1 [6b, 3-((4-((6-methyl-1-phenyl-1H-pyrazolo[3,4-d]pyrimidin-4-yl)amino)phenoxy)methyl)-4-phenyl-1,2,5-oxadiazole 2-oxide] | 120 | 102 | 106 | 93.1 | 101 | 94.3 | 99.5 | 103 | 106 | 95 | 97.1 | 102 | 108 | 109 | 95 | 99.3 | 88.4 | 109 | 103 | 104 | activity at 10 µM (HCT-15): 96.4%; activity at 10 µM (HT29): 106% |
| Cc1nn(-c2ccccc2)c2ncnc(Nc3ccc(OCc4c(-c5ccccc5)no[n+]4[O-])cc3)c12 [6c, 3-((4-((3-methyl-1-phenyl-1H-pyrazolo[3,4-d]pyrimidin-4-yl)amino)phenoxy)methyl)-4-phenyl-1,2,5-oxadiazole 2-oxide] | 107 | 90.6 | 104 | 90.4 | 105 | 97.1 | 91 | 105 | 72 | 101 | 99 | 86.3 | 106 | 105 | 77 | 98.2 | 81.4 | 103 | 90.4 | 97.2 | activity at 10 µM (HCT-15): 91.5%; activity at 10 µM (HT29): 93.2% |
| Cc1nc(Nc2ccc(OCc3c(-c4ccccc4)no[n+]3[O-])cc2)c2c(C)nn(-c3ccccc3)c2n1 [6d, 3-((4-((3,6-dimethyl-1-phenyl-1H-pyrazolo[3,4-d]pyrimidin-4-yl)amino)phenoxy)methyl)-4-phenyl-1,2,5-oxadiazole 2-oxide] | 119 | 103 | 101 | 102 | 109 | 107 | 99.9 | 107 | 104 | 102 | 108 | 112 | 107 | 114 | 88.5 | 101 | 89.6 | 121 | 98 | 106 | activity at 10 µM (HCT-15): 104%; activity at 10 µM (HT29): 119% |
| [O-][n+]1onc(-c2ccccc2)c1COc1ccc(Nc2ncnc3c2cnn3-c2ccc(Br)cc2)cc1 [6e, 3-((4-((1-(4-bromophenyl)-1H-pyrazolo[3,4-d]pyrimidin-4-yl)amino)phenoxy)methyl)-4-phenyl-1,2,5-oxadiazole 2-oxide] | 115 | 100 | 98.8 | 96.3 | 104 | 106 | 97.9 | 105 | 99.9 | 95.8 | 101 | 94 | 106 | 117 | 84.7 | 95.3 | 89.1 | 99.2 | 95.9 | 102 | activity at 10 µM (HCT-15): 94.9%; activity at 10 µM (HT29): 94.5% |
| Cc1nc(Nc2ccc(OCc3c(-c4ccccc4)no[n+]3[O-])cc2)c2cnn(-c3ccc(Br)cc3)c2n1 [6f, 3-((4-((1-(4-bromophenyl)-6-methyl-1H-pyrazolo[3,4-d]pyrimidin-4-yl)amino)phenoxy)methyl)-4-phenyl-1,2,5-oxadiazole 2-oxide] | 109 | 99.5 | 99.3 | 91.4 | 101 | 111 | 90.8 | 110 | 97.2 | 94.5 | 102 | 87.2 | 104 | 114 | 82.7 | 106 | 84.8 | 114 | 99.7 | 99 | activity at 10 µM (HCT-15): 98.1%; activity at 10 µM (HT29): 97.3% |
| Cc1nn(-c2ccc(Br)cc2)c2ncnc(Nc3ccc(OCc4c(-c5ccccc5)no[n+]4[O-])cc3)c12 [6g, 3-((4-((1-(4-bromophenyl)-3-methyl-1H-pyrazolo[3,4-d]pyrimidin-4-yl)amino)phenoxy)methyl)-4-phenyl-1,2,5-oxadiazole 2-oxide] | 107 | 95.7 | 99.3 | 83.5 | 97.1 | 97.4 | 94.5 | 94 | 98.5 | 104 | 87.6 | 106 | 104 | 112 | 81.5 | 91.6 | 80.3 | 101 | 96.5 | 102 | activity at 10 µM (HCT-15): 97.2%; activity at 10 µM (HT29): 101% |
| Cc1nc(Nc2ccc(OCc3c(-c4ccccc4)no[n+]3[O-])cc2)c2c(C)nn(-c3ccc(Br)cc3)c2n1 [6h, 3-((4-((1-(4-bromophenyl)-3,6-dimethyl-1H-pyrazolo[3,4-d]pyrimidin-4-yl)amino)phenoxy)methyl)-4-phenyl-1,2,5-oxadiazole 2-oxide] | 101 | 97 | 102 | 92.3 | 99.8 | 116 | 94.4 | 104 | 81.4 | 91.1 | 105 | 110 | 106 | 104 | 74 | 96 | 80.2 | 96.9 | 91.5 | 96.4 | activity at 10 µM (HCT-15): 79%; activity at 10 µM (HT29): 90% |
